Measurements: patent publication US8211922B2, “1-methylnicotinamide derivatives and formulations for treatment of lipoprotein abnormalities” (Cortria Corporation, priority 2005, dated 2012)
Values joined by “and” are separate entries in the source; they are usually repeats but may differ in a detail not shown here. Identical values can stand only once.

Legend:
[1] = tested on: dyslipidemic and cardiologic patients; assay: Anti-atherogenic effect of MNA after short-term use (2 weeks), plasma lipids in patients; assay type: in vivo, human; conditions: for HDL change: after 2 weeks therapy
Experimental: The anti-atherogenic effect of MNA was investigated in […] dyslipidemic and cardiologic patients. The enrollment criteria was: high level of TG (˜250 mg/dl) and/or high level of total cholesterol (TC) (≧200 mg/dl). The mean age of the patients was 57.5 (range 37-81 years). The enrolled patients were divided into two groups: dyslipidemic patients (4 patients) and dyslipidemic patients after acute coronary failure (myocardial infarction) (12 patients). The patients were treated with MNA for 2 weeks. The MNA was administered orally, three times a day, one capsule (30 mg MNA) after meal. The 16 patients have finished clinical examination.
The plasma levels of TC, TG, and HDL were measured at baseline and after 2 weeks of therapy. The level of LDL was measured in those cases where it was possible (due to high TG level).
Patient nos. 1-4 were dyslipidemic. Patient nos. 5-16 were dyslipidemic patients after acute coronary failure (myocardial infarction).

[2] = tested on: dyslipidemic patients; assay: Anti-atherogenic effect of MNA after long term use (13 months), plasma lipids in patients; assay type: in vivo, human; conditions: for HDL % / TG % / TG/HDL % / Total Cholesterol % / LDL %: change vs time 0
Experimental: The anti-atherogenic effect of MNA was investigated in 2 dyslipidemic patients. The enrollment criteria was: high level of TG (≧250 mg/dl) and/or high level of TC (≧200 mg/dl). The patients were treated with MNA for 13 months. The MNA was administered orally, two times a day (50 mg MNA) after meal.
The plasma levels of TC, TG, and HDL were measured at baseline and during the therapy. The level of LDL was measured in those cases where it was possible (due to high TG level).

[3] = tested on: apoE/LDLR−/− mice; assay: Mice model of atheroprotection, quantitation of atherosclerosis; assay type: in vivo; conditions: female apoE/LDLR−/− mice, 100 mg/kg MNA for 2 months, vs placebo; FIG. 2
Experimental: Female apoE/LDLR^−/− mice on C57BL/6J background were used for experiments. The experiments were conducted according to the Guidelines for Animal Care and Treatment of the European Communities and were approved by the Local Animal Ethics Committee. apoE/LDLR^−/− mice were fed with standard chow. MNA was given for 2 months (100 mg/kg, 4-6 months old apoE/LDLR^−/− mice) and effects of MNA compared to placebo-treated mice. In each group of mice (control and MNA) n=5.
Development of atherosclerosis was determined by cross-section (aortic roots), en-face (whole aorta) analysis and quantified semiautomatically, as described before (Jawien et al. Eur J Clin Invest; 2006; 36:141-6). Briefly, the heart and whole aorta were washed by phosphate buffered saline, then the heart and the whole aorta were removed. The heart and ascending aorta were embedded in OCT compound and snap-frozen. Ten micrometer-thick cryosections were cut and after fixation in 4% paraformaldehyde were stained with Meyer's hematoxylin and oil red-O and lesion area was measured semiautomatically in each slide using LSM Image Browser software.

[4] = tested on: patients on permanent therapy with simvastatin or atorvastatin; assay: Long term MNA use in patients on permanent therapy with statins, lipoprotein levels; assay type: in vivo, human
Experimental: A group of 8 patients (5 females and 3 males, ages 59-85) on permanent therapy with simvastatin or atorvastatin (10-20 mg/day) were selected for the study. MNA in a daily dose of 90-180 mg was co-administrated for a period of 3 to 42 months. The liporotein levels for each patient were monitored in every 1 to 3 months. […] The changes varied from patient to patient within a limit −5% to −42%. The appropriate changes in LDL were within −12% to +17% and in HDL within −6% to +37%.

[5] = Binding to Sepharose immobilized heparin; conditions: as a cationic molecule
[6] = tested on: PGI2; assay: PGI2 release
[7] = Chemical stability; assay type: physicochemical
[8] = Toxicity and tolerability
[9] = 30 mg MNA orally three times a day, after 2 weeks, individual patients
[10] = 30 mg MNA orally three times a day, after 2 weeks, individual patients nos. 1-16
[11] = change visit 2 vs visit 1, 30 mg MNA orally three times a day, 2 weeks, individual patients nos. 1-16
[12] = change visit 2 vs visit 1, 2 weeks, individual patients
[13] = mean of 16 patients, 30 mg MNA orally three times a day, after 2 weeks
[14] = mean of 16 patients, after 2 weeks
[15] = mean of 16 patients, change visit 2 vs visit 1, 2 weeks
[16] = 2 dyslipidemic patients, 50 mg MNA orally two times a day, 13 months

1-methylnicotinamide chloride [MNA]
Glucose visit 2 [1, 9]: 152 mg/dl and 81 mg/dl and 89 mg/dl (2×) and 90 mg/dl and 101 mg/dl and 129 mg/dl and 96 mg/dl (2×) and 82 mg/dl and 113 mg/dl and 128 mg/dl and 97 mg/dl and 111 mg/dl | LDL visit 2 [1, 9]: 162 mg/dL and 171 mg/dL and 114 mg/dL and 82 mg/dL and 121 mg/dL and 111 mg/dL and 81 mg/dL and 149 mg/dL and 178 mg/dL and 148 mg/dL | Uric Acid visit 2 [1, 9]: 7.2 mg/dL and 4.4 mg/dL and 8.9 mg/dL and 9.6 mg/dL and 6.6 mg/dL and 5.7 mg/dL and 5.3 mg/dL and 5.31 mg/dL and 5.26 mg/dL and 5.8 mg/dL and 7.33 mg/dL | HDL visit 2 [1, 10]: 40 mg/dl and 41 mg/dl (2×) and 59 mg/dl and 31 mg/dl and 45 mg/dl (3×) and 46 mg/dl and 37 mg/dl and 36 mg/dl and 29 mg/dl and 38 mg/dl and 67 mg/dl and 72 mg/dl and 42 mg/dl | Total Cholesterol visit 2 [1, 10]: 251 mg/dL and 260 mg/dL and 208 mg/dL and 155 mg/dL and 130 mg/dL and 203 mg/dL and 194 mg/dL and 159 mg/dL and 253 mg/dL and 271 mg/dL and 229 mg/dL and 146 mg/dL and 280 mg/dL and 188 mg/dL and 243 mg/dL and 231 mg/dL | TG/HDL ratio ([1]; after 2 weeks therapy (baseline 9.60)): 5.25 | HDL change ([1]; group of dyslipidemic patients): substantial increase | HDL change ([1]; group of dyslipidemic patients after acute coronary failure (myocardial infarction)): not observed | LDL % ([1]; change visit 2 vs visit 1, 30 mg MNA orally three times a day, 2 weeks, individual patients): 18.25% and 23.91% and 107.27% and −40.58% and 0.83% and −23.97% and −35.71% and 14.62% and 78.00% and 12.98% | HDL % [1, 11]: 11.11% and 7.89% and −1.67% and −8.82% and −25.45% and −18.18% and −8.00% and −15.91% and −14.29% (2×) and 9.76% and 0.00% and −22.45% and 31.37% and 36.36% and 71.43% | Total Cholesterol % [1, 11]: 5.91% and −5.11% and 8.33% and −38.74% and −43.97% and −17.14% and −24.51% and −31.17% and −4.17% and −12.58% and 3.62% and −39.67% and −6.98% and 2.73% and −17.06% and −4.94% | Glucose % [1, 12]: −8.98% and 2.53% and 7.23% and −25.62% and 5.21% and 17.27% and −19.33% and 0.00% and 9.09% and 18.95% and 8.54% and −10.49% and −1.02% and 4.72% | Uric Acid % [1, 12]: −16.28% and 2.33% and −38.62% and 37.14% and 6.45% and 0.00% and −23.19% and 0.95% and −2.59% and −1.69% and 21.96% | TG/HDL % ([1]; change visit 2 vs visit 1, 2 weeks, individual patients nos. 1-16): −32.29% and −54.61% and −54.01% and −43.95% and −41.63% and −36.79% and −33.19% and −19.29% and −14.21% and −60.02% and −15.08% and −68.96% and −26.10% and −59.00% and −84.18% and −3.72% | TG visit 2, Mean Value [1, 13]: 216 mg/dL and 216.31 mg/dL | Total Cholesterol visit 2, Mean Value [1, 13]: 212 mg/dL and 212.56 mg/dL | HDL visit 2, Mean Value [1, 14]: 44.63 mg/dL | TG/HDL visit 2, Mean Value [1, 14]: 5.25 | HDL %, Mean Value [1, 15]: 0.85% | TG %, Mean Value [1, 15]: −47.2% and −47.18% | TG/HDL %, Mean Value [1, 15]: −45.32% | Total Cholesterol %, Mean Value [1, 15]: −14.50% | LDL visit 2, Mean Value ([1]; mean of patients with LDL measured, after 2 weeks): 131.70 mg/dL | LDL %, Mean Value ([1]; mean of patients with LDL measured, change visit 2 vs visit 1, 2 weeks): 7.86% | TC level [2, 16]: reduced significantly | TG level [2, 16]: reduced significantly | HDL levels ([2]; 2 dyslipidemic patients, after only a few months of therapy): increase | TG/HDL ratio ([2]; 2 dyslipidemic patients, long term use): reduction | TG ([2]; Patient 1, 50 mg MNA orally two times a day, 1.5 months): 218 mg/dL | TG ([2]; Patient 1, 50 mg MNA orally two times a day, 6 months): 255 mg/dL | TG ([2]; Patient 1, 50 mg MNA orally two times a day, 12 months): 315 mg/dL | HDL ([2]; Patient 1, 1.5 months): 28.0 mg/dL | LDL ([2]; Patient 1, 1.5 months): 81.4 mg/dL | TG/HDL ([2]; Patient 1, 1.5 months): 7.79 | Total Cholesterol ([2]; Patient 1, 1.5 months): 153 mg/dL | HDL ([2]; Patient 1, 6 months): 38.6 mg/dL | LDL ([2]; Patient 1, 6 months): 87.0 mg/dL | TG/HDL ([2]; Patient 1, 6 months): 6.61 | Total Cholesterol ([2]; Patient 1, 6 months): 177 mg/dL | HDL ([2]; Patient 1, 12 months): 48.1 mg/dL | LDL ([2]; Patient 1, 12 months): 118.0 mg/dL | TG/HDL ([2]; Patient 1, 12 months): 6.55 | Total Cholesterol ([2]; Patient 1, 12 months): 229 mg/dL | HDL % ([2]; Patient 1, 1.5 months): −8.79% | TG % ([2]; Patient 1, 1.5 months): −77.39% | TG/HDL % ([2]; Patient 1, 1.5 months): −75.21% | Total Cholesterol % ([2]; Patient 1, 1.5 months): −48.66% | HDL % ([2]; Patient 1, 6 months): 25.73% | TG % ([2]; Patient 1, 6 months): −73.55% | TG/HDL % ([2]; Patient 1, 6 months): −78.96% | Total Cholesterol % ([2]; Patient 1, 6 months): −40.60% | HDL % ([2]; Patient 1, 12 months): 56.68% | TG % ([2]; Patient 1, 12 months): −67.32% | TG/HDL % ([2]; Patient 1, 12 months): −79.14% | Total Cholesterol % ([2]; Patient 1, 12 months): −23.15% | TG ([2]; Patient 2, 50 mg MNA orally two times a day, 7 months): 269 mg/dL | TG ([2]; Patient 2, 50 mg MNA orally two times a day, 13 months): 160 mg/dL | HDL ([2]; Patient 2, 7 months): 79.0 mg/dL | LDL ([2]; Patient 2, 7 months): 128.0 mg/dL | TG/HDL ([2]; Patient 2, 7 months): 3.41 | Total Cholesterol ([2]; Patient 2, 7 months): 261 mg/dL | HDL ([2]; Patient 2, 13 months): 70.8 mg/dL | LDL ([2]; Patient 2, 13 months): 106.8 mg/dL | TG/HDL ([2]; Patient 2, 13 months): 2.26 | Total Cholesterol ([2]; Patient 2, 13 months): 210 mg/dL | HDL % ([2]; Patient 2, 7 months): 79.55% | LDL % ([2]; Patient 2, 7 months): −53.11% | TG % ([2]; Patient 2, 7 months): −10.93% | TG/HDL % ([2]; Patient 2, 7 months): −50.39% | Total Cholesterol % ([2]; Patient 2, 7 months): −28.49% | HDL % ([2]; Patient 2, 13 months): 60.91% | LDL % ([2]; Patient 2, 13 months): −60.88% | TG % ([2]; Patient 2, 13 months): −47.02% | TG/HDL % ([2]; Patient 2, 13 months): −67.07% | Total Cholesterol % ([2]; Patient 2, 13 months): −42.47% | Atherosclerosis progression (lesion area) [3]: slows atherosclerosis progression | HDL ([4]; co-administration with statin, patients with a low starting HDL level (<40 mg/dl)): particularly remarkable increase | Triglyceride (TG) level ([4]; long term co-administration of MNA with simvastatin or atorvastatin, in general): reduction | Negative side effects ([4]; long term co-administration of MNA with statins): Neither patients nor doctors involved with this study have declared any negative side effects | Binding to Sepharose immobilized heparin [5]: bound | PGI2 release [6]: releases PGI2 | Chemical stability [7]: chemically very stable | Tolerability [8]: very well tolerated | Toxicity [8]: non-toxic
